Source: patent EP4640688A1, “AVERMECTIN DERIVATIVE” (Meiji Seika Pharma Co., Ltd., priority 2022, dated 2024)

Tested on: SARS-CoV-2
Type: cell-based
Settings: concentration reducing replication to 50% vs control, read-out: Antiviral activity

| Compound | IC50 [µM] |
| --- | --- |
| CCC(C)C1OC2(CCC1C)CC1CC(CC=C(C)C(OC3CC(OC)C(OC4CC(OC)C(O)C(C)O4)C(C)O3)C(C)C=CC=C3COC4C(=NO)C(C)CC(C(=O)O1)C34O)O2 (centres unmarked) [Compound I-1] | < 1 |
| CCC(C)C1OC2(CCC1C)CC1CC(CC=C(C)C(OC3CC(OC)C(OC4CC(OC)C(O)C(C)O4)C(C)O3)C(C)C=CC=C3COC4C(=NOCC(=O)NC)C(C)=CC(C(=O)O1)C34O)O2 (centres unmarked) [Compound I-124] | < 1 |
